The source of these data is patent publication US20110190503A1, “Thiazolopyridin-2-yloxy-phenyl and thiazolopyrazin-2-yloxy-phenyl amines as modulators of leukotriene A4 hydrolase” (Janssen Pharmaceutical NV, priority 2008, published 2011).

Assay [1] concerns airway hyperresponsiveness. The following applies: primate model; cited from earlier work.
In assay [2] the target is T1, recombinant human LTA4 hydrolase (rhLTA4H) (Homo sapiens, UniProt P09960).
T1 construct: made in house; host or cells: Spodoptera frugiperda (Sf-9) cells, recombinant baculovirus (pFastBac1)
T1 sequence (P09960 1-611): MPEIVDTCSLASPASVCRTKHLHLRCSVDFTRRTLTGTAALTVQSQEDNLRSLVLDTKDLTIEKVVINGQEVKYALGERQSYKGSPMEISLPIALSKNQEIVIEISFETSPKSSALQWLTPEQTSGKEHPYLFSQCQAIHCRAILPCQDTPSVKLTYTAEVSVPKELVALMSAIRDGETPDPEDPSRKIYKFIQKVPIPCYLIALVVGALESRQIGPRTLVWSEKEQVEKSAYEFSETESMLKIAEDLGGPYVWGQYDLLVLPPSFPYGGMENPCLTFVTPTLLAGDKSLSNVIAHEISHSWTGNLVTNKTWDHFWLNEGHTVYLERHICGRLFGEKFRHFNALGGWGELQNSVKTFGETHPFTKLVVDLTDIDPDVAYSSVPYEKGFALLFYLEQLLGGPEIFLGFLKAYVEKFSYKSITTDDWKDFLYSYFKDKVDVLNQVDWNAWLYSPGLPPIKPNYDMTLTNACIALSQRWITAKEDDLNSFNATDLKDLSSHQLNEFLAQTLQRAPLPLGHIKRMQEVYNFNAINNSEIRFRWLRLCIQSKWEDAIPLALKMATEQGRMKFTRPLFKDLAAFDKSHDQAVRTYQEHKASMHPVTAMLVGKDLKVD
The assay can be described thus: Recombinant human LTA4 hydrolase assay for LTA4 hydrolase inhibitor activity. Particulars: rhLTA4H, LTA4 substrate, LTB4 by immunoassay; single determination or average; read-out: IC50. Format: biochemical. The essentials: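 Recombinant human LTA4H from baculovirus-infected Sf-9 cells (10 ng) pre-incubated 10 min at rt with compound (10% DMSO in dilutions), then reacted with free-acid LTA4 for 30 min at rt. LTB4 measured by ELISA; IC50 by nonlinear regression. Values are single determinations or averages.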

Assay [3] relates to LTB4 production by calcium ionophore-stimulated murine blood. The assay can be described thus: LTB4 production by calcium ionophore-stimulated murine blood for LTA4H inhibitor activity. Format: cell-based, CD-1 mice. Particulars: Mus musculus; murine blood diluted 1 in 15, calcium ionophore A23187, LTB4 by immunoassay; read-out: IC50. The essentials: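 Heparinized CD-1 mouse blood pre-incubated with compound 15 min at 37° C, then stimulated with calcium ionophore A23187 (7 μg/mL final) for 30 min. LTB4 in supernatant measured by enzyme immunoassay; values are single or averaged determinations, with SD for n≥3.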

The subject of assay [4] is LTB4 production by calcium ionophore-stimulated human blood. The assay is described as follows: LTB4 production by calcium ionophore-stimulated human blood for LTA4H inhibitor activity. In kind it is cell-based. The following applies: human blood diluted 1:1, calcium ionophore A23187, LTB4 by immunoassay; n in parentheses; read-out: IC50. As for the experimental part:
Assay 3: LTB4 Production by Calcium Ionophore-Stimulated Human Blood for LTA4H Inhibitor Activity
Human blood was collected from healthy donors in heparin-containing syringes. The blood was diluted 1:1 with RPMI-1640 medium, and 200-μL aliquots of the diluted blood were added to wells of a 96-well microtiter plate. LTA4H inhibitor test compounds were prepared at different concentrations in RPMI-1640 medium containing 1% DMSO, and 20 μL of each test solution was added to a well containing diluted whole blood (final DMSO concentration of 0.1%). After the microtiter plate contents were incubated for 15 min at 37° C. in a humidified incubator, calcium ionophore A23187 (Sigma Chemical Co., St. Louis, Mo.) was added to each sample well (final concentration=7 μg/mL). The incubation was continued under the same conditions for an additional 30 min to allow LTB4 formation. The reaction was terminated by centrifugation (833×g, 10 min at 4° C.), and supernatants were analyzed for LTB4 by a commercially available enzyme-linked immunoassay (Cayman Chemical Co.) according to the manufacturer's instructions. Positive controls, under essentially identical conditions but without addition of an inhibitor compound, and negative unstimulated controls, containing all assay components except calcium ionophore, were routinely run in each experiment. IC50 values for compounds tested in this assay were determined by nonlinear regression of the activity data at different compound concentrations using Graphpad Prism 4.0, one site binding competition, and are presented in Table 3. The number of determinations made is indicated in parentheses following each value.

Assay [5] deals with atopic dermatitis. Particulars: small, open-label clinical trials; cited from earlier work.
The test system of assay [6] is pruritus. Particulars: Sjogren-Larsson syndrome patients; cited from earlier work.
In assay [7] the test system is bronchial hyperresponsiveness. The following applies: human asthma; cited from earlier work.
For assay [8] the following is noted: severe asthmatics; cited from earlier work.
The test system of assay [9] is ionophore-induced LTB4 production. The following applies: oral administration; cited from earlier work.
For assay [10] the test system is unchanged. Particulars: oral administration; cited from earlier work. The source holds these as a separate data set.
Assay [11] deals with colitis symptoms. Particulars: eight weeks of treatment, cotton top tamarins; cited from earlier work.
Assay [12] concerns ex vivo stimulated LTB4 production. The assay is described as follows: Murine arachidonic acid-induced inflammation model: ex vivo stimulated LTB4 production (% Inh. LTB4). The following applies: Mus musculus; female Balb/c mice, 30 mg/kg oral gavage; blood taken 3 h after arachidonic acid, ex vivo A23187 stimulation; number of determinations in parentheses. In short, it runs like this:
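Female Balb/c mice got 30 mg/kg orally in 20% cyclodextran/H2O. Heparinized blood in RPMI-1640 was stimulated with A23187 ([…]) for 30 min at 37 °C. LTB4 was measured by ELISA as % inhibition versus vehicle-dosed mice.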

Assay [13] relates to neutrophil influx. The assay can be described thus: Murine arachidonic acid-induced inflammation model: neutrophil influx in ear, myeloperoxidase activity (% Inh. MPO). Format: in vivo. The following applies: Mus musculus, female Balb/c mice, 30 mg/kg oral gavage, ear biopsy 3 h after topical arachidonic acid, number of determinations in parentheses. In short, it runs like this: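 Female Balb/c mice were dosed orally at 30 mg/kg (20% cyclodextran/H2O). Ear biopsies at 3 h; MPO activity by TMB, A405, acetone ear subtracted; inhibition versus vehicle-dosed mice.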

Counter-ions that a name gives are not always drawn.

Regarding `O=C(O)C1(c2ccc3c(c2)OC[C@H](Cc2ccc(-c4ccccc4)cc2)[C@H]3O)CCCC1` [CP-105,696], in assay [1], the “airway hyperresponsiveness induced by multiple antigen challenges” value is recorded as “reduced airway hyperresponsiveness”.

The IC50 is the concentration that gives 50% inhibition. For `NC(=O)N1C[C@@H]2CC[C@H]1CN2Cc1ccc(Oc2nc3ncccc3s2)cc1` [Example 293, (1S,4S)-5-[4-([1,3]Thiazolo[4,5-b]pyridin-2-yloxy)benzyl]-2,5-diazabicyclo[2.2.2]octane-2-carboxamide formate], the IC50 in assay [2] is 0.003 µM; in [3], 0.029 µM; in assay [4] it was 0.01 µM.

Take `CC(c1cc2ccccc2s1)N(O)C(N)=O` (centres unmarked) [zileuton]: the “effect in atopic dermatitis” value in [5] is on record as “beneficial effects”. Also, the pruritus entry in [6] is reported as “relieving the pruritus”. Further, the bronchial hyperresponsiveness result in assay [7] is reported as “reduction of bronchial hyperresponsiveness”. For the same molecule, the quality of life result in assay [8] is “significantly improve quality of life”.

On to `CN(CCCOc1ccc(Cc2ccccc2)cc1)CCC(=O)O.Cl` [SC57461], for which the “inhibition of ionophore-induced LTB4 production in mouse blood ex vivo” value in assay [9] was “caused inhibition”. For the same molecule, in [10], the “inhibition of ionophore-induced LTB4 production in rat peritoneum in vivo” value is listed as “caused inhibition”. Also, the colitis symptoms result in assay [11] is listed as “significantly improved”.

Broadly, the inhibition is the relative decrease from the control value, in per cent. Usually inhibition in vivo stands for the relative decrease from the control value, in per cent. With `c1cnc2nc(Oc3ccc(CN4CCCCC4)cc3)sc2c1` [Example 85, 2-[4-(Piperidin-1-ylmethyl)phenoxy][1,3]thiazolo[4,5-b]pyridine], the IC50 in assay [2] was 0.0029 µM; in [3] it was 0.037 µM. The inhibition at 30 mg/kg in assay [12] came out at 66.8%. Moreover, the inhibition in vivo at 30 mg/kg in [13] was determined as 48.4%.

With `c1cnc2nc(Oc3ccc(CN4CCC(N5CCOCC5)CC4)cc3)sc2c1` [Example 257, 2-{4-[(4-Morpholin-4-ylpiperidin-1-yl)methyl]phenoxy}[1,3]thiazolo[4,5-b]pyridine], the results for the IC50 in assay [2] and in assay [3] were 0.029 µM and 0.097 µM, respectively. For the same molecule, in [12], the inhibition at 30 mg/kg stood at 86%. Besides, the inhibition in vivo at 30 mg/kg in [13] is 70.5%.

As for `CC(=O)N1C[C@@H]2C[C@H]1CN2Cc1ccc(Oc2nc3ncccc3s2)cc1` [Example 127, 1-{(1S,4S)-5-[4-([1,3]Thiazolo[4,5-b]pyridin-2-yloxy)benzyl]-2,5-diazabicyclo[2.2.1]hept-2-yl}ethanone], the IC50 in assay [2] is 0.005 µM; in [3], 0.0075 µM. Moreover, in assay [12], the inhibition at 30 mg/kg turned out to be 91.5%. For the same molecule, the inhibition in vivo at 30 mg/kg in [13] amounted to 87.6%.

`c1cnc2nc(Oc3ccc(CCN4CCOCC4)cc3)sc2c1` [Example 59, 2-[4-(2-Morpholin-4-ylethyl)phenoxy][1,3]thiazolo[4,5-b]pyridine]: the IC50 was 0.009 µM in [2] and 0.019 µM in assay [3]. The inhibition at 30 mg/kg in assay [12] was 92.7%. The inhibition in vivo at 30 mg/kg in assay [13] is 89.9%.

For the molecule `Cc1ccnc2nc(Oc3ccc(CN4CCC(C(N)=O)CC4)cc3)sc12` [Example 282, 1-{4-[(7-Methyl[1,3]thiazolo[4,5-b]pyridin-2-yl)oxy]benzyl}piperidine-4-carboxamide], the IC50 in assay [2] worked out at 0.066 µM; in assay [3], 0.155 µM. Besides, the inhibition at 30 mg/kg in assay [12] came out at 62.8%. Also, in assay [13], the inhibition in vivo at 30 mg/kg came to 61.1%.

For `CCN(CC)Cc1ccc(Oc2nc3ncccc3s2)cc1` [Example 111, N-Ethyl-N-[4-([1,3]thiazolo[4,5-b]pyridin-2-yloxy)benzyl]ethanamine], the values for the IC50 in [2] and in [3] were 0.0066 µM and 0.03 µM, respectively. The inhibition at 30 mg/kg in assay [12] worked out at 56.8%. In addition, the inhibition in vivo at 30 mg/kg in [13] was 66.9%.
